In the NIST ThermoML archive (doi:10.1016/j.jct.2019.03.007):

Assay: molar heat capacity at constant pressure
Conditions: 101.33 kPa, Crystal 1, DSC

O=[N+]([O-])[O-].O=[N+]([O-])[O-].[Ca+2] [calcium nitrate]
Conditions | molar heat capacity at constant pressure [J/K/mol]
361.78 K | 152.56
362.18 K | 160.28
362.78 K | 152.75
363.18 K | 160.44
363.78 K | 152.95
364.18 K | 160.63
364.78 K | 153.15
365.18 K | 160.81
365.78 K | 153.35
366.18 K | 161.02
366.78 K | 153.54
367.18 K | 161.17
367.78 K | 153.74
368.18 K | 161.33
368.78 K | 153.94
369.18 K | 161.53
369.78 K | 154.14
370.18 K | 161.7
370.78 K | 154.34
371.18 K | 161.95
371.78 K | 154.54
372.18 K | 162.09
372.78 K | 154.75
373.18 K | 162.29
373.78 K | 154.94
374.18 K | 162.35
374.78 K | 155.12
375.18 K | 162.54
375.78 K | 155.3
376.18 K | 162.75
376.78 K | 155.47
377.18 K | 162.97
377.78 K | 155.64
378.18 K | 163.18
378.78 K | 155.81
379.18 K | 163.4
379.78 K | 155.97
380.18 K | 163.62
380.78 K | 156.14
381.18 K | 163.84
381.78 K | 156.31
382.18 K | 164.05
382.78 K | 156.48
383.18 K | 164.32
383.78 K | 156.65
384.18 K | 164.57
384.78 K | 156.82
385.18 K | 164.8
385.78 K | 156.99
386.18 K | 164.98
386.78 K | 157.16
387.18 K | 165.18
387.78 K | 157.33
388.18 K | 165.31
388.78 K | 157.5
389.18 K | 165.47
389.78 K | 157.67
390.18 K | 165.67
390.78 K | 157.83
391.18 K | 165.88
391.78 K | 158
392.18 K | 166.07
392.78 K | 158.17
393.18 K | 166.27
393.78 K | 158.34
394.18 K | 166.46
394.78 K | 158.51
395.18 K | 166.6
395.78 K | 158.68
396.18 K | 166.74
396.78 K | 158.86
397.18 K | 166.86
397.78 K | 159.03
398.18 K | 167.03
398.78 K | 159.2
399.18 K | 167.15
399.78 K | 159.38
400.18 K | 167.33
400.78 K | 159.54
401.18 K | 167.43
401.78 K | 159.71
402.18 K | 167.63
402.78 K | 159.87
403 K | 160.69
403.18 K | 167.77
403.78 K | 160.04
404 K | 160.78
404.18 K | 167.98
404.78 K | 160.23
405 K | 161.04
405.18 K | 168.21
405.78 K | 160.41
406 K | 160.25
406.18 K | 168.41
406.78 K | 160.58
407 K | 160.32
407.18 K | 168.63
407.78 K | 160.76
408 K | 160.3
408.18 K | 168.88
408.78 K | 160.93
409 K | 160.49
409.18 K | 169.09
409.78 K | 161.1
410 K | 161.08
410.18 K | 169.35
410.78 K | 161.27
411 K | 160.76
411.18 K | 169.49
411.78 K | 161.44
412 K | 160.92
412.18 K | 169.72
412.78 K | 161.61
413 K | 161.04
413.18 K | 169.84
413.78 K | 161.77
414 K | 161.26
414.18 K | 170.06
414.78 K | 161.94
415 K | 161.41
415.18 K | 170.21
415.78 K | 162.11
416 K | 161.42
416.18 K | 170.45
416.78 K | 162.27
417 K | 161.52
417.18 K | 170.58
417.78 K | 162.43
418 K | 161.73
418.18 K | 170.76
418.78 K | 162.59
419 K | 162.11
419.18 K | 170.93
419.78 K | 162.75
420 K | 162.15
420.18 K | 171.07
420.78 K | 162.91
421 K | 162.33
421.18 K | 171.17
421.78 K | 163.06
422 K | 162.71
422.18 K | 171.32
422.78 K | 163.22
423 K | 162.96
423.18 K | 171.45
423.78 K | 163.38
424 K | 163.14
424.18 K | 171.55
424.78 K | 163.54
425 K | 163.33
425.18 K | 171.73
425.78 K | 163.69
426 K | 163.37
426.18 K | 171.87
426.78 K | 163.85
427 K | 163.76
427.18 K | 172.05
427.78 K | 164.01
428 K | 163.77
428.18 K | 172.26
428.78 K | 164.17
429 K | 163.7
429.18 K | 172.5
429.78 K | 164.33
430 K | 163.8
430.18 K | 172.74
430.78 K | 164.49
431 K | 163.76
431.18 K | 173.01
431.78 K | 164.65
432 K | 163.92
432.18 K | 173.21
432.78 K | 164.81
433 K | 164.38
433.18 K | 173.43
433.78 K | 164.96
434 K | 164.69
434.18 K | 173.63
434.78 K | 165.13
435 K | 164.65
435.18 K | 173.82
435.78 K | 165.29
436 K | 164.7
436.18 K | 174.04
436.78 K | 165.45
437 K | 164.8
437.18 K | 174.21
437.78 K | 165.61
438 K | 165.07
438.18 K | 174.35
438.78 K | 165.77
439 K | 165.44
439.18 K | 174.62
439.78 K | 165.93
440 K | 165.84
440.18 K | 174.82
440.78 K | 166.09
441 K | 165.74
441.18 K | 175.02
441.78 K | 166.26
442 K | 165.94
442.18 K | 175.16
442.78 K | 166.42
443 K | 166.4
443.18 K | 175.33
443.78 K | 166.58
444 K | 166.4
444.18 K | 175.47
444.78 K | 166.75
445 K | 166.55
445.18 K | 175.65
445.78 K | 166.92
446 K | 166.46
446.18 K | 175.77
446.78 K | 167.08
447 K | 166.39
447.18 K | 175.94
447.78 K | 167.25
448 K | 166.47
448.18 K | 176.08
448.78 K | 167.41
449 K | 166.51
449.18 K | 176.2
449.78 K | 167.57
450 K | 166.69
450.18 K | 176.36
450.78 K | 167.73
451 K | 166.81
451.18 K | 176.52
451.78 K | 167.88
452 K | 166.99
452.18 K | 176.72
452.78 K | 168.04
453 K | 167.12
453.18 K | 176.94
453.78 K | 168.19
454 K | 167.19
454.18 K | 177.19
454.78 K | 168.34
455 K | 167.39
455.18 K | 177.36
455.78 K | 168.49
456 K | 167.61
456.18 K | 177.51
456.78 K | 168.64
457 K | 167.67
457.18 K | 177.68
457.78 K | 168.79
458 K | 167.76
458.18 K | 177.88
458.78 K | 168.94
459 K | 167.66
459.18 K | 178.01
459.78 K | 169.09
460 K | 167.65
460.18 K | 178.19
